These are literature values, as cited in US20120097160A1, “AGGLOMERATE FORMULATIONS INCLUDING ACTIVE PHARMACEUTICAL AGENTS WITH TARGETED PARTICLE SIZES” (SCHERING CORPORATION, priority 2009, published 2012).

Where two headings read alike, the source gives them in different places.

Consider `C[C@@H]1C[C@H]2[C@@H]3CCC4=CC(=O)C=C[C@]4(C)[C@@]3(Cl)[C@@H](O)C[C@]2(C)[C@@]1(OC(=O)c1ccco1)C(=O)CCl` [Mometasone furoate, 9,21-Dichloro-11(beta), 17-dihydroxy-16(alpha)-methylpregna-1,4-diene-3,20-dione 17-(2 furoate)], for which the solubility result was “soluble” (acetone); “soluble” (chloroform); “slightly soluble” (ethanol); “slightly soluble” (isopropanol); “slightly soluble” (methanol); “freely soluble” (tetrahydrofuran). The solubility result (water) is listed as “practically insoluble”.
